13 molecules from US8436043B2 (Takeda Pharmaceutical Company Limited, priority 2008, dated 2013) can be followed below.

The first assay deals with T1, human glucagon receptor (Homo sapiens, UniProt P47871).
T1 construct: made in house; host or cells: FreeStyle CHO cells, transient transfection with pMSRαneo/hGCGR; membrane fraction (35,000 rpm pellet)
T1 sequence (P47871 26-477): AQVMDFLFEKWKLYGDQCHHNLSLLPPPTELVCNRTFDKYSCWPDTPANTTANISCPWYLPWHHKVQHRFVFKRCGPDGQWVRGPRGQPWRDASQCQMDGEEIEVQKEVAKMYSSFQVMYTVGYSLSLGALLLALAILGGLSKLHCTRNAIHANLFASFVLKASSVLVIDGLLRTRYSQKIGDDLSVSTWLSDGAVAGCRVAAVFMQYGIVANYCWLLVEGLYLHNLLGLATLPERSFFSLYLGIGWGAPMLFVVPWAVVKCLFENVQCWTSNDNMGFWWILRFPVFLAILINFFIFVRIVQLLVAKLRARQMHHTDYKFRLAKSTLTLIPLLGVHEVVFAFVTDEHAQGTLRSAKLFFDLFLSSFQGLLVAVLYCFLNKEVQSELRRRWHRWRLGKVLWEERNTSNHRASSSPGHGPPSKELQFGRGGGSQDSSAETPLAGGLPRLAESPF
The assay can be described thus: Glucagon binding inhibitory activity ([125I]-glucagon binding to glucagon receptor membrane protein). To be noted: test compound 10 μM; 0.4% DMSO = 0%, non-labeled glucagon 1 μM = 100%. Put shortly:
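Receptor source was a membrane fraction of transiently transfected CHO cells bearing human receptor; 90 min room-temperature binding, filtration harvest, scintillation counting.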
On to `COc1ccc2oc(C(Nc3ccc(C(=O)N(C)CCC(=O)O)cc3)C3CCCCC3)c(C)c2c1` (stereo not shown) [Example A43, 3-{[(4-{[cyclohexyl(5-methoxy-3-methyl-1-benzofuran-2-yl)methyl]amino}phenyl)carbonyl](methyl)amino}propanoic acid], for which the “inhibitory rate (%) at 10 μM” value amounted to 80%. For `COc1ccc2oc(C(Nc3ccc(C(=O)N(C)CCC(=O)O)cc3)C3CCCCC3)c(C)c2c1` (stereo not shown) [Example A44, 3-{[(4-{[cyclohexyl(5-methoxy-3-methyl-1-benzofuran-2-yl)methyl]amino}phenyl)carbonyl](methyl)amino}propanoic acid], the “inhibitory rate (%) at 10 μM” value stood at 82%. Turning to `Cc1c(C(Nc2ccc(C(=O)N(C)CCC(=O)O)cc2)C2CCCCC2)oc2ccc(F)cc12` (stereo not shown) [Example A46, 3-{[(4-{[cyclohexyl(5-fluoro-3-methyl-1-benzofuran-2-yl)methyl]amino}phenyl)carbonyl](methyl)amino}propanoic acid], the “inhibitory rate (%) at 10 μM” value is listed as 78%.

The same assay, now with this note: test compound 10 μM; 0.4% DMSO = 0%, non-labeled glucagon 1 μM = 100%; read-out: inhibitory rate (%) at 10 μM.
`COc1ccc2oc(C(Nc3ccc(C(=O)NCCC(=O)O)cc3)C3CCCCC3)c(C)c2c1` (stereo not shown) [Example A30, 3-{[(4-{[cyclohexyl(5-methoxy-3-methyl-1-benzofuran-2-yl)methyl]amino}phenyl)carbonyl]amino}propanoic acid]: the inhibition at 10 µM was found to be 76%. Consider `CCc1c(C(CC(C)C)Nc2ccc(C(=O)N(C)CCC(=O)O)cc2)oc2ccccc12` (stereo not shown) [Example A31, 3-{[(4-{[1-(3-ethyl-1-benzofuran-2-yl)-3-methylbutyl]amino}phenyl)carbonyl](methyl)amino}propanoic acid], for which the inhibition at 10 µM turned out to be 62%.

For `Cc1c(C(CC(C)C)Nc2ccc(C(=O)N(C)CCC(=O)O)cc2)sc2ccccc12` (stereo not shown) [Example A32, 3-{methyl[(4-{[3-methyl-1-(3-methyl-1-benzothiophen-2-yl)butyl]amino}phenyl)carbonyl]amino}propanoic acid], the inhibition at 10 µM turned out to be 72%.

In the case of `Cc1c(C(CC(C)C)Nc2ccc(C(=O)NCCC(=O)O)cc2)sc2ccccc12` (stereo not shown) [Example A33, 3-{[(4-{[3-methyl-1-(3-methyl-1-benzothiophen-2-yl)butyl]amino}phenyl)carbonyl]amino}propanoic acid], the inhibition at 10 µM came to 76%. As to `CCc1c(C(CC(C)C)Nc2ccc(C(=O)NCCC(=O)O)cc2)oc2ccccc12` (stereo not shown) [Example A34, 3-{[(4-{[1-(3-ethyl-1-benzofuran-2-yl)-3-methylbutyl]amino}phenyl)carbonyl]amino}propanoic acid], the inhibition at 10 µM came out at 75%. With `COc1ccc2cc(C(Nc3ccc(C(=O)NCCC(=O)O)cc3)C3CCCCC3)oc2c1` (stereo not shown) [Example A35, 3-{[(4-{[cyclohexyl(6-methoxy-1-benzofuran-2-yl)methyl]amino}phenyl)carbonyl]amino}propanoic acid], the inhibition at 10 µM was 71%. Turning to `Cc1c(C(CC(C)C)Nc2ccc(C(=O)NCCC(=O)O)cn2)sc2ccccc12` (stereo not shown) [Example A36, 3-{[(6-{[3-methyl-1-(3-methyl-1-benzothiophen-2-yl)butyl]amino}pyridin-3-yl)carbonyl]amino}propanoic acid], the inhibition at 10 µM was determined as 73%.

Regarding `Cc1c(C(Nc2ccc(C(=O)N(C)CCC(=O)O)cc2)C2CCCCC2)oc2ccc(F)cc12` (stereo not shown) [Example A37, 3-{[(4-{[cyclohexyl(5-fluoro-3-methyl-1-benzofuran-2-yl)methyl]amino}phenyl)carbonyl](methyl)amino}propanoic acid], the inhibition at 10 µM came out at 78%. On the same count and under the same terms, in the case of `Cc1c(C(CC(C)C)Nc2ccc(C(=O)N(C)CCC(=O)O)cn2)sc2ccccc12` (stereo not shown) [Example A38, 3-{methyl[(6-{[3-methyl-1-(3-methyl-1-benzothiophen-2-yl)butyl]amino}pyridin-3-yl)carbonyl]amino}propanoic acid] it was 56%; in that of `Cc1c(C(Nc2ccc(C(=O)NCCC(=O)O)cc2)C2CCCCC2)oc2ccc(F)cc12` (stereo not shown) [Example A39, 3-{[(4-{[cyclohexyl(5-fluoro-3-methyl-1-benzofuran-2-yl)methyl]amino}phenyl)carbonyl]amino}propanoic acid], 78%.
